These results are taken from patent publication US12415989B2, “Cell culture platform for single cell sorting and enhanced reprogramming of iPSCs” (Fate Therapeutics, Inc., priority 2010, dated 2025).

“Also recorded” adds a separate entry of the source.

For one assay, the system named is human fibroblasts. The experiment in a line: Reprogramming of fibroblasts to iPSCs: kinetics and efficiency of colony formation. The class given is cell-based. As to conditions: additive used in the culture system for 3 days.
The test system of assay [1] is human pluripotent stem cells. The experiment in a line: Small molecule cocktails in single cell culture of human pluripotent stem cells on feeder free substratum. Type of assay: cell-based. As to conditions: in combination with MEKi/TFGβi/GSKi. The protocol: FIGS. 1A-1E. The effects of various small molecule cocktails on single cell culture of human pluripotent stem cells on feeder free substratum. FIG. 1A. Different morphologies were evident when single cell dissociated human pluripotent stem cells were treated with various combinations of small molecules in a feeder free environment. Medium containing a combination of ROCKi/MEKi/TGFβi/GSKi delivered robust growth and viability of human pluripotent stem cells. FIG. 1B. While some small molecules supported maintenance of pluripotent stem cells, i.e., MEKi/TGFβi/GSKi, and others facilitated single cell dissociation of pluripotent stem cells, i.e., Rocki, the unique combination of these small molecules, i.e., ROCKi/MEKi/TGFβi/GSKi, supported single cell dissociation while maintaining undifferentiated status as indicated by highly proliferative colonies that were positive for pluripotent marker Tra181. Tra181, red; DAPI, blue. FIG. 1C. The combination of MEKi/TFGβi/GSKi/ROCKi supported viability and proliferation when hiPSCs were seeded at 1×10^5 cells on Matrigel and scored 4 days later for number of viable cells and percent viability as measured by trypan blue. FIG. 1D. […] FIG. 1E. […]

Method for human fibroblasts: To initiate the reprogramming process, ectopic expression of reprogramming factors (in variable combinations of human Oct4, Sox2, Klf4, c-Myc, Lin28, and Nanog) was achieved using lentiviral transduction or other methods such as protein only treatment. In most cases, the starting cells were plated at 10% confluency (i.e., 1×10^5 cells per well of a 6-well plate) on a gelatin (Mediatech) coated surface. For the method of viral infection, freshly collected lentivirus was added to the starting cells at a dilution of 1:2, supplemented with 4 μg/mL polybrene (Millipore), and spin-infected at 650 g at 32° C. for 1.5 hrs. The culture was transferred to 37° C. and 5% CO2 for an additional 7 hrs. After the completion of the incubation, the cells were washed three times with PBS and fed with fresh medium. With difficult to infect cells, such as IMR90 fibroblasts in feeder-free culture systems, this process was repeated one more time, 48 hrs post the initial infection. For non-genetic methods of inducing reprogramming such as the use of direct protein application to the cells, protein mixtures, or cocktails, consisting of reprogramming factors at 8 μg/mL were added to cell solution and maintained for 24 hrs prior to medium change. This step was repeated for an additional two to four times. […]

As to fibronectin, the post-sort seeding result with human fibroblasts is listed as “improved post-sort seeding”.
For the molecule `O=C(NCc1ccccc1)c1csc(Nc2ccncn2)n1` [Thiazovivin], the “maintenance of cells in an undifferentiated state (SSEA4 and Tra181 surface expression)” value in assay [1] (compared with Y27632) is reported as “preferred over Y27632; also recorded: better supports the maintenance of cells in an undifferentiated state”. In addition, the colony morphology entry in assay [1] (relative to Y27632) is “more compact in morphology”.
